{
  "source": "patent US10138230B2",
  "about": "“Autotaxin inhibitors” (CANCER RESEARCH TECHNOLOGY LIMITED, priority 2015, dated 2018)",
  "note": "pIC50: −log10 of the molar value. Structures can show the parent of a compound that is named as a salt.",
  "data": [
    {"target": "human recombinant ATX (Homo sapiens (Human), UniProt Q13822)", "assay": "Autotaxin (ATX) activity Quanta Red assay", "format": "biochemical", "conditions": "15 μM Rac-1-Palmitoyl-glycero-3-phosphocholine, 2 hours room temperature, determined in duplicate", "method": "The ATX enzyme assay (Quanta Red assay) described in accompanying Example section may be used to measure the pharmacological effects of the compounds of the present invention.\nAutotaxin (ATX) Activity Quanta Red Assay\nMeasuring ATX activity using an enzyme coupled Quanta Red assay (Thermo Scientific—Pierce Protein Research Products, Product #15159) was determined as follows. 8 μL human recombinant ATX (final concentration 0.8 μg/mL) in 1× Assay buffer containing 50 mM Tris-HCl (pH 8.0), 5 mM CaCl2 was added to an opaque black flat-bottom 384-well plate (Corning, #3575) containing 2 μL test compound in 40% DMSO (4% final DMSO concentration). 10 μL of Quanta Red, Horseradish peroxidase (HRP), Choline Oxidase (CO), Rac-1-Palmitoyl-glycero-3-phosphocholine solution (final concentration 1:250 for Quanta Red, 0.5units/ml HRP, 0.5units/ml CO, 15 μM Rac-1-Palmitoyl-glycero-3-phosphocholine) in 1× assay buffer (as described previously) was added to each well to start the reaction and the plate was incubated at room temperature for 2 hours. The reaction was stopped after 2 hours with a 20 μL addition of Quanta Red Stop solution (1:20 dilution in distilled water). The above-described mixture with DMSO alone was used as a positive control whereas that with DMSO alone without ATX was taken as a negative control.\nFor each test compound, ten concentrations were measured covering a range of 6.1 nM to 120 μM to determine IC50 values. The top concentration was decreased to 1.2 μM when a test compound's IC50 value was evaluated in low nanomolar range. Fluorescence was determined in a BMG Labtech Pherastar plus plate reader ([…]). Data were analysed using Excel fit software. IC50 values were determined in duplicate.", "values": [
      {"compound": "CC1CN(Cc2ccc(N3CC(C(=O)Nc4nnc(CCc5ccc(Cl)cc5)s4)CC3=O)cc2)C[C@H](C)O1", "note": "(stereo in doubt) [Compound F125, N-[5-[2-(4-chlorophenyl)ethyl]-1,3,4-thiadiazol-2-yl]-1-[4-[[(2S,6S)-2,6-dimethylmorpholin-4-yl]methyl]phenyl]-5-oxo-pyrrolidine-3-carboxamide]", "pIC50": 8.10},
      {"compound": "O=C(Nc1cc(CCc2ccc(Cl)cc2)on1)C1CC(=O)N(c2ccc(CN3CCCCC3)cc2)C1", "note": "(stereo in doubt) [Compound F146, (3S)-N-[5-[2-(4-chlorophenyyl)ethyl]isoxazol-3-yl]-5-oxo-1-[4-(1-piperidylmethyl)phenyl] pyrrolidine-3-carboxamide]", "pIC50": 9.00},
      {"compound": "O=C(Nc1nnc(CCc2ccc(F)cc2)s1)[C@H]1CC(=O)N(c2ccc(CN3CCOCC3)cc2)C1", "note": "(stereo in doubt) [Compound F215, 1-(4-Morpholin-4-ylmethyl-phenyl)-5-oxo-pyrrolidine-3-carboxylic acid {5-[2-(4-fluoro-phenyl)-ethyl]-[1,3,4]thiadiazol-2-yl}-amide; hydrochloride]", "pIC50": 8.52},
      {"compound": "CN(Cc1ccc(N2C[C@@H](C(=O)Nc3nnc(CCc4ccc(Cl)cc4)s3)CC2=O)cc1)C1CCOC1", "note": "(stereo partly drawn) [Compound F87, (3S)-N-[5-[2-(4-chlorophenyl)ethyl]-1,3,4-thiadiazol-2-yl]-1-[4-[[methyl(tetrahydrofuran-3-yl)amino]methyl]phenyl]-5-oxo-pyrrolidine-3-carboxamide]", "pIC50": 9.00},
      {"compound": "CN(Cc1ccc(N2C[C@@H](C(=O)Nc3nnc(CCc4ccc(Cl)cc4)s3)CC2=O)cc1)C1COC1", "note": "[Compound F88, (3S)-N-[5-[2-(4-chlorophenyl)ethyl]-1,3,4-thiadiazol-2-yl]-1-[4-[[methyl(oxetan-3-yl)amino]methyl]phenyl]-5-oxo-pyrrolidine-3-carboxamide]", "pIC50": 9.00},
      {"compound": "O=C(Nc1nnc(CCc2ccc(Cl)cc2)s1)[C@H]1CC(=O)N(c2ccc(CN3CCOCC3)cc2)C1", "note": "[Compound F89, (3S)-N-[5-[2-(4-chlorophenyl)ethyl]-1,3,4-thiadiazol-2-yl]-1-[4-(morpholino-methyl)phenyl]-5-oxo-pyrrolidine-3-carboxamide]", "pIC50": 9.00},
      {"compound": "CN(Cc1ccc(N2C[C@@H](C(=O)Nc3nnc(CCc4ccc(Cl)cc4)s3)CC2=O)cc1)C1CCOCC1", "note": "[Compound F90, (3S)-N-[5-[2-(4-chlorophenyl)ethyl]-1,3,4-thiadiazol-2-yl]-1-[4-[[methyl(tetrahydropyran-4-yl)amino]methyl]phenyl]-5-oxo-pyrrolidine-3-carboxamide]", "pIC50": 9.00},
      {"compound": "O=C(Nc1nnc(CCc2ccc(Cl)cc2)s1)[C@H]1CC(=O)N(c2ccc(CN3CCCCCC3)cc2)C1", "note": "[Compound F91, (3S)-1-[4-(azepan-1-ylmethyl)phenyl]-N-[5-[2-(4-chlorophenyl)ethyl]-1,3,4-thiadiazol-2-yl]-5-oxo-pyrrolidine-3-carboxamide]", "pIC50": 9.00},
      {"compound": "CC1CCN(Cc2ccc(N3C[C@@H](C(=O)Nc4nnc(CCc5ccc(Cl)cc5)s4)CC3=O)cc2)CC1", "note": "[Compound F92, (S)-1-[4-(4-methyl-piperidin-1-ylmethyl)-phenyl]-5-oxo-pyrrolidine-3-carboxylic acid {5-[2-(4-chloro-phenyl)-ethyl]-[1,3,4]thiadiazol-2-yl}-amide]", "pIC50": 9.00},
      {"compound": "O=C(Nc1nnc(CCc2ccc(Cl)cc2)s1)[C@H]1CC(=O)N(c2ccc(CN3CCCCC3)cc2)C1", "note": "[Compound F93, (3S)-N-[5-[2-(4-chlorophenyl)ethyl]-1,3,4-thiadiazol-2-yl]-5-oxo-1-[4-(1-piperidylmethyl)phenyl] pyrrolidine-3-carboxamide]", "pIC50": 9.00},
      {"compound": "COCCN(C)Cc1ccc(N2C[C@@H](C(=O)Nc3nnc(CCc4ccc(Cl)cc4)s3)CC2=O)cc1", "note": "[Compound F94, (3S)-N-[5-[2-(4-chlorophenyl)ethyl]-1,3,4-thiadiazol-2-yl]-1-[4-[[2-methoxyethyl(methyl)amino]methyl]phenyl]-5-oxo-pyrrolidine-3-carboxamide]", "pIC50": 9.00},
      {"compound": "CC1CCN(Cc2ccc(N3CC(C(=O)Nc4nnc(CCc5ccc(Cl)cc5)s4)CC3=O)cc2)CC1", "note": "(stereo not drawn) [Compound F95, 1-[4-(4-methyl-piperidin-1-ylmethyl)-phenyl]-5-oxo-pyrrolidine-3-carboxylic acid {5-[2-(4-chloro-phenyl)-ethyl]-[1,3,4]thiadiazol-2-yl}-amide]", "pIC50": 8.70},
      {"compound": "O=C(Nc1nnc(CCC2CCCCC2)s1)C1CC(=O)N(c2ccc(CN3CCCOCC3)cc2)C1", "note": "(stereo not drawn) [Compound F96, N-[5-(2-cyclohexylethyl)-1,3,4-thiadiazol-2-yl]-1-[4-(1,4-oxazepan-4-ylmethyl)phenyl]-5-oxo-pyrrolidine-3-carboxamide]", "pIC50": 8.70},
      {"compound": "O=C(Nc1nnc(CCc2ccc(C(F)(F)F)cc2)s1)[C@H]1CC(=O)N(c2ccc(CN3CCOCC3)cc2)C1", "note": "[Compound F97, (3S)-1-[4-(morpholinomethyl)phenyl]-5-oxo-N-[5-[2-[4-(trifluoromethyl)phenyl]ethyl]-1,3,4-thiadiazol-2-yl]pyrrolidine-3-carboxamide]", "pIC50": 8.70},
      {"compound": "CCN(CC)Cc1ccc(N2CC(C(=O)Nc3nnc(CCc4ccc(Cl)cc4)s3)CC2=O)cc1", "note": "(stereo not drawn) [Compound F98, N-[5-[2-(4-chlorophenyl)ethyl]-1,3,4-thiadiazol-2-yl]-1-[4-(diethylaminomethyl)phenyl]-5-oxo-pyrrolidine-3-carboxamide]", "pIC50": 8.70},
      {"compound": "O=C(Nc1nnc(CCc2ccc(Cl)cc2)s1)C1CC(=O)N(c2ccc(CN3CCCCC3)cc2)C1", "note": "(stereo not drawn) [Compound F99, N-[5-[2-(4-chlorophenyl)ethyl]-1,3,4-thiadiazol-2-yl]-5-oxo-1-[4-(1-piperidylmethyl)phenyl] pyrrolidine-3-carboxamide]", "pIC50": 8.70},
      {"compound": "COCCN(C)Cc1ccc(N2CC(C(=O)Nc3nnc(CCc4ccc(Cl)cc4)s3)CC2=O)cc1", "note": "(stereo not drawn) [Compound F100, N-[5-[2-(4-chlorophenyl)ethyl]-1,3,4-thiadiazol-2-yl]-1-[4-[[2-methoxyethyl(methyl)amino]methyl]phenyl]-5-oxo-pyrrolidine-3-carboxamide]", "pIC50": 8.70},
      {"compound": "O=C(Nc1nnc(CCc2ccc(Cl)cc2)s1)C1CC(=O)N(c2ccc(CN3CCCOCC3)cc2)C1", "note": "(stereo not drawn) [Compound F101, N-[5-[2-(4-chlorophenyl)ethyl]-1,3,4-thiadiazol-2-yl]-1-[4-(1,4-oxazepan-4-ylmethyl)phenyl]-5-oxo-pyrrolidine-3-carboxamide]", "pIC50": 8.52},
      {"compound": "O=C(Nc1nnc(CCc2ccc(Cl)cc2)s1)C1CC(=O)N(c2ccc(CN3CCC(O)CC3)cc2)C1", "note": "(stereo not drawn) [Compound F102, N-[5-[2-(4-chlorophenyl)ethyl]-1,3,4-thiadiazol-2-yl]-1-[4-[(4-hydroxy-1-piperidyl)methyl]phenyl]-5-oxo-pyrrolidine-3-carboxamide]", "pIC50": 8.52},
      {"compound": "O=C(Nc1nnc(CCc2ccc(Cl)cc2)s1)[C@H]1CC(=O)N(c2ccc(CN3CC4CC4C3)cc2)C1", "note": "(stereo partly drawn) [Compound F103, (3S)-1-[4-(3-azabicyclo[3.1.0]hexan-3-ylmethyl)phenyl]-N-[5-[2-(4-chlorophenyl)ethyl]-1,3,4-thiadiazol-2-yl]-5-oxo-pyrrolidine-3-carboxamide]", "pIC50": 8.52},
      {"compound": "O=C(Nc1nnc(CCc2ccc(Cl)cc2)s1)[C@H]1CC(=O)N(c2ccc(CN3CCCOCC3)cc2)C1", "note": "[Compound F104, (3S)-N-[5-[2-(4-chlorophenyl)ethyl]-1,3,4-thiadiazol-2-yl]-1-[4-(1,4-oxazepan-4-ylmethyl)phenyl]-5-oxo-pyrrolidine-3-carboxamide]", "pIC50": 8.52}
    ]}
  ]
}
